According to EP0208962B1, “Combination preparations from thrombocyte aggregation inhibitors, and their use” (HOECHST AKTIENGESELLSCHAFT, priority 1985, dated 1987):
Entries after “also recorded” stand apart in the source; their conditions may differ.

Legend:
Humanthrombozyten [1] = assay: Induced aggregation of human platelets in vitro (Method 1, platelet-rich plasma, Born aggregometer); type: cell-based; settings: result in words; Tilsuprost compared with Prostacyclin
From the text: Methode 1 - Induzierte Aggregation von Humanthrombozyten in vitro
Gesund erscheinenden männlichen und weiblichen Freiwilligen, die im vorangegangenen Zeitraum von 10 Tagen keine Medikamente eingenommen haben, wird durch vorsichtige Kanülierung der Antekubitalvene Blut entnommen, das sofort mit Natriumzitrat (ad 0,38%) stabilisiert wird. Durch 15minütiges Zentrifugieren bei 140 x g erhält man im Überstand plättchenreiches Plasma (PRP), dessen Thrombozytengehalt im Bereich 2,5 - 3,5·10⁺⁸ /ml (Coulter Counter) liegen soll. Die Plättchenaggregation wird optisch durch Messung der Lichttransmission im Born'schen Aggregometer verfolgt. Das Gesamtvolumen des Testansatzes beträgt 0,25 ml. Die Vorinkubationszeit mit dem Prüfpräparat beträgt 10 min bei 37°C, die Aggregationsinduktion erfolgt sodann mit 2 · 10⁻⁴ mol/l Arachidonsäure oder 1,7 µg/ml Kollagen. Das Prüfpräparat wird an fünf verschiedenen Spendern getestet. Aus den jeweiligen maximalen Aggregationsamplituden werden Dosis-Wirkungskurven erstellt und graphisch die arithmetisch gemittelten ED₅₀ (mol/l)-Werte bestimmt. Die Messungen erfolgen im Zeitraum von 1-6 Stunden nach Blutentnahme.

Humanthrombozyten [2] = assay: Cyclo AMP determination in human platelets (Method 3, 3H-adenine labelling); type: cell-based; settings: result in words
Method: Methode 3 - Cyclo AMP-Bestimmung in Humanthrombozyten
Die Methode folgt in allen Einzelheiten der Vorschrift in Nature (London) 292 (1981) 364: Statt Kaninchenthrombozyten wurde jedoch menschliches Thrombozytenkonzentrat mit ³H-Adenin bei 20°C für 90 min inkubiert. Das überschüssige Adenin wird, wie in Nature beschrieben, entfernt, die Wirkstoffe (s. Tab. 2) zugesetzt und erneut 5 min (37°C) inkubiert. Das gebildete ³H-cyclo AMP wird in der bekannten Weise abgetrennt und durch Radioaktivitätsmessung quantifiziert.

CCCCC[C@H](O)/C=C/[C@@H]1[C@H]2C/C(=C/CCCC(=O)O)O[C@H]2C[C@H]1O [Prostacyclin, reference compound]
Hemmstoffe der Aggregation von Humanthrombozyten (Humanthrombozyten [1]): äquipotent

CCCCCC(O)C=CC1C(O)CC2N=C(SCCCCC(=O)O)CC21 (stereo not drawn) [Tilsuprost]
Hemmstoffe der Aggregation von Humanthrombozyten (Humanthrombozyten [1]): äquipotent
cyclo AMP-Stimulierung in Humanthrombozyten (Humanthrombozyten [2]): keine signifikante Stimulierung; also recorded: keine signifikante stimulierende Wirkung
